This is an account of results in article PMC9032570, “Flavonoids and Phenols, the Potential Anti-Diabetic Compounds from Bauhinia strychnifolia Craib. Stem” (Molecules, 2022).

As usually defined, the pIC50 is the negative decadic logarithm of the IC50, by convention in mol/L.

One assay deals with α-glucosidase. Also noted: method as in earlier work. The note with it: known active flavonoids from B. strychnifolia stem; cited from earlier work.
Assay [1] concerns the target T1, dipeptidyl peptidase-IV (DPP-IV) from porcine kidney (Sus scrofa, UniProt P22411).
T1 construct: purchased Sigma Aldrich Inc. (St. Louis, MO. USA); host or cells: porcine kidney (tissue-derived enzyme)
The assay can be described thus: Dipeptidyl peptidase-IV (DPP-IV) inhibitory assay (GP-p-NA substrate). The format is biochemical. An excerpt: (§1) Folin–Ciocalteu reagent was bought from Merck (Darmstadt, Germany). Fetal bovine serum (FBS), penicillin-streptomycin, Dulbecco’s Modified Eagle Medium, high glucose (DMEM, high glucose), Roswell Park Memorial Institute (RPMI) 1640 medium, trypsin-EDTA, trypan blue dyes, and 3-(4,5-dimethylthiazol-2-yl)-2,5 diphenyltetrazolium bromide (MTT) were obtained from Thermo Fisher Scientific (Waltham, CA, USA). Ethanol, methanol, hexane, dichloromethane, ethyl acetate, and acetone (as analytical grades) were purchased from Labscan Asia Co., Bangkok, Thailand.
The DPP-IV inhibition activities of crude extract, partitioned fractions, and isolated pure compounds were investigated, following the procedure of Van et al. (2009) and Al-Masri et al. (2009), with some modifications. Concisely, 40 µL of each sample diluted in 50 mM Tris-HCl buffer, pH 8.0 (at final concentration 50 ug/mL), was pre-incubated with 30 µL of 0.05 U/mL of DPP-IV enzyme at 37 °C. After 10 min, 100 µL of 0.2 mM GP-p-NA substrate was added to the solution and further incubated for 30 min. Then, the reaction was terminated with 30 µL of 25% acetic acid, and the absorbance at 405 nm was suddenly measured by a microplate reader (DTX880 Multimode Detector, Beckman Coulter®, Wein, Austria). The percentage of inhibition was calculated, following the formula: [(Acontrol − Asample)/Acontrol] × 100, where Acontrol and Asample were the absorbances of reaction with and without sample, respectively. Diprotin A was employed as a positive control, and the results were presented as the IC50 value.

In assay [2] the target is T2, α-glucosidase from Saccharomyces cerevisiae (Saccharomyces cerevisiae, UniProt P53341).
T2 construct: purchased Sigma Aldrich Inc. (St. Louis, MO. USA)
The assay can be described thus: α-Glucosidase inhibitory assay (pNPG substrate). The format is biochemical. The note with it: for pIC50: IC50 α-Glucosidase.
Description: as §1
The inhibitory effects against α-glucosidase enzyme of crude extract, partitioned fractions, and all isolated pure compounds were examined according to previous assay. In brief, 50 µL of each sample in 50 mM phosphate buffer, pH 6.9 (at various concentrations), was pre-mixed with 50 µL of 0.57 U/mL α-glucosidase enzyme for 10 min at 37 °C. Then, 50 µL of 5 mM pNPG substrate was added into the mixture and further incubated for 30 min, after that stopping the reaction by 50 µL of 1 M sodium carbonate solution (Na2CO3). A microplate reader (DTX880 Multimode Detector, Beckman Coulter®, Wien, Austria) immediately measured the absorbance at 405 nm. The following equation calculated the percentage of inhibition: [(Acontrol − Asample)/Acontrol] × 100, where Acontrol and Asample were the absorbance of reaction without and with the sample, respectively.

The test system of assay [3] is LPS-induced raw 264.7 cells. The assay can be described thus: Nitric oxide production in LPS-induced raw 264.7 cells (Griess assay). The format is cell-based, murine. Particulars: 200 ng/mL LPS, 24 h, Figure 5. Here is the method: The investigation of the inhibitory activities against LPS induced nitric oxide (NO) production of crude extract, partitioned fractions, and isolated compounds by Griess assay, which was accomplished as described by Kaewdana et al.. Briefly, Raw264.7 cells were seeded, at the density of 1 × 10^5 cells/well, in 96-well plates. After 1–2 h culture, the medium was changed and co-treated with different concentrations of samples and 200 ng/mL LPS for 24 h. After that, the nitrite-containing medium was equally mixed with the Griess reagent (1% sulfanilamide in 5% phosphoric acid and 0.1% naphthyl ethylenediamine dihydrochloride (NED) in water) and measured by a microplate reader at 570 nm. Indomethacin (a nonsteroidal anti-inflammatory drug) was used as a positive control. Results were shown as the percentage of inhibition calculated, following the equation: [(Acontrol − Asample)/Acontrol] × 100.
In general terms: Griess reagent forms a coloured azo dye with nitrite.

In a further assay the test system is 3T3-L1 adipocytes. The assay is described as follows: Glucose uptake assay in differentiated 3T3-L1 adipocytes (GO kit). The format is cell-based, mouse. Particulars: for glucose uptake stimulation: positive control.
The mark [4] stands for this setting: molar value, in parentheses in Table 3.

pIC50: −log10 of the molar value. ≈ marks a conversion by molar mass, not a printed value. Like-named read-outs stand apart in the source and are kept apart here.

T1 sequence (P22411 whole entry): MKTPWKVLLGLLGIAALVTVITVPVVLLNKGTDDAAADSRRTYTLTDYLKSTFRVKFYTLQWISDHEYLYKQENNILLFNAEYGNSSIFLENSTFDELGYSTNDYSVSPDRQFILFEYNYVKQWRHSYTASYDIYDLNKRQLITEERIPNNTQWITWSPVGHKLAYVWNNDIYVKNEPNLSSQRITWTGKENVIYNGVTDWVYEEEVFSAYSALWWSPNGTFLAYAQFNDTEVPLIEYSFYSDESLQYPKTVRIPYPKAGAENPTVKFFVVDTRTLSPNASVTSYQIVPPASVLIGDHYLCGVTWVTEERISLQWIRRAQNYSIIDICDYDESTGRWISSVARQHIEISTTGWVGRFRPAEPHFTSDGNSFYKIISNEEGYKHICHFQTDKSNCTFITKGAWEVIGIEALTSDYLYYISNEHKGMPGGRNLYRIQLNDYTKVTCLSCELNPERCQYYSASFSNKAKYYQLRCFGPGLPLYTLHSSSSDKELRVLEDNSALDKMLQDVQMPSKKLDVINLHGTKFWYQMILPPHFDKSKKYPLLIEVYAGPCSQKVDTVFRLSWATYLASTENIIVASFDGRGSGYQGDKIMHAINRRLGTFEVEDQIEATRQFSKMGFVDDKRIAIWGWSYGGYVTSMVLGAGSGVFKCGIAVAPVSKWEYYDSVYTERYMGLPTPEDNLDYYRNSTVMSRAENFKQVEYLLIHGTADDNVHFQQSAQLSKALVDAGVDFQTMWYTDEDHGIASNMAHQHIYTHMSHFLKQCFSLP
T2 sequence (P53341 whole entry): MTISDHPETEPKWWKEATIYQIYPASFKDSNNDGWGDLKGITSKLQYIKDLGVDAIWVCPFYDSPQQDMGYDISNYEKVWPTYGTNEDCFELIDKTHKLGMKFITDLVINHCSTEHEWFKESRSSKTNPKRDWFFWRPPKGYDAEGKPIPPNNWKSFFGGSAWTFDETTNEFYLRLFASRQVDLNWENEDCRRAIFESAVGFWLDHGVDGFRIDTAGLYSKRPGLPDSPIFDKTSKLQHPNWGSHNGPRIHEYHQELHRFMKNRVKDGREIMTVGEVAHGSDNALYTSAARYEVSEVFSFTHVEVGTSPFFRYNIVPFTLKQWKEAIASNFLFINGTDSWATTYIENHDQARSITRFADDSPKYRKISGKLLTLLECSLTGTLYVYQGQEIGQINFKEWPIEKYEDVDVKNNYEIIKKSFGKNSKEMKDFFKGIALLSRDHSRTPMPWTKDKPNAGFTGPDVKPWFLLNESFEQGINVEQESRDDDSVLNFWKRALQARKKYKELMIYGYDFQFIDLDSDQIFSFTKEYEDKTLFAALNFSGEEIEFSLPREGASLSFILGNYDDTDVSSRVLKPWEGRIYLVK
Description for 3T3-L1 adipocytes: The 3T3-L1 pre-adipocytes were induced to differentiate into adult adipocytes after 48 h of confluence in 48 wells plate. The cells were incubated with cultured media, comprising of 1 µg/mL insulin, 10 µM dexamethasone, and 0.5 mM IBMX. After 48 h of incubation, differentiate media were removed and replaced with cultured media containing 1 µg/mL insulin. Then, the maintained media were changed every two days for eight days.
The glucose uptake stimulatory effect of crude extract, partitioned fractions, and isolated compounds was determined by the previously described method [60]. Briefly, differentiated adipocytes were grown in 48-well plates, with cultured media containing 2% FBS, for 18 h. Then, the cells were washed and treated with various concentrations of samples in a complete low glucose medium. After 24 h of incubation, the treated medium of samples was individually transferred into 96-well plates and mixed with the reagent of the GO kit at 37 °C for 30 min. The reaction was terminated by 6M H2SO4, and the absorbance of remaining glucose at 540 nm was recorded by a microplate reader. The ability to enhance glucose uptake was measured by the amount of glucose in the media. The percentage of glucose uptake stimulation was calculated by following equation: %stimulation = [(Acontrol − Asample)/Acontrol] × 100, where Acontrol and Asample were the absorbances of reaction with and without sample, respectively.

For `C[C@@H]1O[C@@H](Oc2coc3cc(O)cc(O)c3c2=O)[C@H](O)[C@H](O)[C@H]1O` [3,5,7-Trihydroxychromone-3-O-α-L-rhamnopyranoside], the “IC50 α-glucosidase inhibitory effect” value at α-glucosidase is given as 540 µg/mL (≈ 1590 µM).

Take `Oc1cc(O)c2c(c1)O[C@H](c1ccc(O)c(O)c1)[C@H](O)C2` [Epicatechin]: the pIC50 in assay [1] and in assay [1] (setting [4]) was under 4.30 in each case. The “α-glucosidase inhibitory ability (in words)” value in assay [2] is given as “no effect”. Moreover, the “effect on NO production (in words)” value in assay [3] is listed as “inhibitory effect on NO production at only high concentrations”.

`O=C(O)c1cc(O)c(O)c(O)c1` [Gallic acid]: the pIC50 in assay [1] was under 4.30; in assay [1] (setting [4]) it was under 4.30; in assay [2], under 4.60; in assay [2] (setting [4]) it was under 4.60. For the same molecule, in assay [2], the “α-glucosidase inhibitory ability (in words)” value is recorded as “no effect”. The “effect on NO production (in words)” value in assay [3] was “inhibitory effect on NO production at only high concentrations”.

As to `COc1ccc2c(c1)c(CC(=O)O)c(C)n2C(=O)c1ccc(Cl)cc1` [Indomethacin, indomethacin, reference compound], the “effect on NO production (in words)” value in assay [3] is reported as “potent anti-inflammatory”.

Regarding `O=c1c(O)c(-c2ccc(O)c(O)c2)oc2cc(O)cc(O)c12` [Quercetin], the negative-log IC50 (pIC50) in assay [1] and in assay [1] (setting [4]) was 5.08 each time. For the same molecule, the “effect on NO production (in words)” value in assay [3] is “no effect”. The “glucose uptake stimulation effect (in words)” value in the assay with 3T3-L1 adipocytes (Figure 4) is “higher glucose uptake stimulation effect than resveratrol, gallic acid, and epicatechin”.

As to `Oc1ccc(/C=C/c2cc(O)cc(O)c2)cc1` [Resveratrol], the pIC50 in assay [1] and in assay [1] (setting [4]) was 4.85 throughout. Besides, the “effect on NO production (in words)” value in assay [3] is reported as “inhibitory effect on NO production at only high concentrations”.

Take `CN(C)C(=N)N=C(N)N` [metformin, reference compound]: in the assay on 3T3-L1 adipocytes (2 mM), the glucose uptake stimulation is given as 85.34%.

Turning to insulin, the glucose uptake stimulation with 3T3-L1 adipocytes (100 nM) turned out to be 92.81%.
